Measurements published in patent publication US8043823B2, “Methods of identifying agonists and antagonists of hTASR bitter taste receptors” (Deutsches Institut fuer Ernaehrungsforschung, priority 2007, dated 2011).
pEC50: −log10 of the molar value.

Experiments:
Assay type in all cases: cell-based
TAS2R47 = target: T1, TAS2R47 (Homo sapiens, UniProt P59541); experiment: FLIPR calcium imaging of HEK-293T Gα16gust44 cells transiently expressing TAS2R47
T1 construct: expressed in transfected cells; host or cells: HEK-293T cells stably expressing Gα16gust44
T1 sequence (P59541 1-319): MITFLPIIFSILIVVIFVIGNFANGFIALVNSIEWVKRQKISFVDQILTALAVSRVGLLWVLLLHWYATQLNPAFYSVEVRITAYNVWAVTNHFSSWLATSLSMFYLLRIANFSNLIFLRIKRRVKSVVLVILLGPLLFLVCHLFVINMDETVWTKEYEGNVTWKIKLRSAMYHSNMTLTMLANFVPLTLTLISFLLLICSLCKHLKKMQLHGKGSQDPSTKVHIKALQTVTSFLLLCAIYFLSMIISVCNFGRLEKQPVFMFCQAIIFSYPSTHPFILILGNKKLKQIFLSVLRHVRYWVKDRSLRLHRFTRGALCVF
Text: (§1) Functional expression. Human TAS2R cDNA constructs were used that encoded a plasma membrane-targeting sequence of the rat somatostatin type 3 receptor at the N-terminus of the recombinant polypeptide and a herpes simplex virus glycoprotein D (HSV) epitope at its C-terminus (Bufe et al., 2002). The constructs were transiently transfected into HEK-293T cells that stably express the chimeric G-protein subunit Gα16gust44 using Lipofectamine 2000 (Invitrogen, San Diego, Calif.) in 96-well microtiter plates. Calcium imaging experiments using an automated fluorometric imaging plate reader (FLIPR) (Molecular Devices, Munich, Germany) have been performed 24-32 h later essentially as described previously (Bufe et al., 2002). Tastants (Sigma-Aldrich, Taufkirchen, Germany) were dissolved and administered in the following (in mM): 130 NaCl, 5 KCl, 10 HEPES, 2 CaCl2, and 10 mM glucose, pH7.4. Data were collected from 1-2 independent experiments performed at least in triplicate and processed with SigmaPlot (SPSS, Chicago, Ill.). For dose-response curve calculation, the peak fluorescence responses after compound addition were corrected for and normalized to background fluorescence (ΔF/F=(F−F0)/F0), and baseline noise was subtracted. […]

TAS2R50 = target: T2, TAS2R50 (Homo sapiens, UniProt P59544, C203Y); experiment: FLIPR calcium imaging of HEK-293T Gα16gust44 cells transiently expressing TAS2R50
T2 construct: expressed in transfected cells; host or cells: HEK-293T cells stably expressing Gα16gust44
T2 sequence (P59544 1-299 C203Y): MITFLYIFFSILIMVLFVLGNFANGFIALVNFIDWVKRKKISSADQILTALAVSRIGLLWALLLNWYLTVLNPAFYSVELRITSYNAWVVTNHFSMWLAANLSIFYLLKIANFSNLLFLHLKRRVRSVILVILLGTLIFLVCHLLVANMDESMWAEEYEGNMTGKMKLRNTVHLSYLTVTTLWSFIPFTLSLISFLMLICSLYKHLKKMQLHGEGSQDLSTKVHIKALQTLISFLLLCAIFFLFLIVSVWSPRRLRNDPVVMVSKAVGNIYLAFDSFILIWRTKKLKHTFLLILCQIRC
Text: as §1

TAS2R46 = target: T3, TAS2R46 (Homo sapiens, UniProt P59540); experiment: FLIPR calcium imaging of HEK-293T Gα16gust44 cells transiently expressing TAS2R46; settings: intracellular calcium response
T3 construct: expressed in transfected cells; host or cells: HEK-293T cells stably expressing Gα16gust44
T3 sequence (P59540 with tags, fused parts or gaps): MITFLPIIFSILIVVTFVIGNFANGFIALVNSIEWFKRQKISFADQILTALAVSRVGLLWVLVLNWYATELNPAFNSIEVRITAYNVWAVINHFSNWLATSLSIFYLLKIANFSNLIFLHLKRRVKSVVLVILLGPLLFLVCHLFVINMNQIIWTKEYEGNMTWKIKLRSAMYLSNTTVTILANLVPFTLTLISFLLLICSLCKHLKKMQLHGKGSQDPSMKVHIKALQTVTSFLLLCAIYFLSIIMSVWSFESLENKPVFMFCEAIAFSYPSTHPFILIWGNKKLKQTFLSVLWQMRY
Text: as §1

| molar range at which TAS2R47 responded (TAS2R47; Table 1, assay similar to Example 1) | pEC50 (TAS2R50; dose-response curve on TAS2R50, FIG. 2, one experiment in triplicate) | response of TAS2R50 in FLIPR calcium imaging (TAS2R50; result in words) | concentration at which TAS2R47-expressing HEK293 cells responded (TAS2R47; intracellular calcium response, 30 μM or higher) | concentration to which TAS2R46-expressing cells already responded (TAS2R46) | SMILES |
| --- | --- | --- | --- | --- | --- |
| 0.3 mM | – | – | – | – | CC12CCC(CC1=O)C2(C)C (centres unmarked) [Camphor, camphor] |
| – | 5.25 | low micromolar range | ≥ 30 µM | 3 µM | C=C1CC[C@@H]2[C@](C)(CO)[C@H](O)CC[C@@]2(C)[C@@H]1C/C=C1/C(=O)OC[C@H]1O [andrographolide] |
